Data from patent publication US4333873A, “Pharmacologically active peptides” (Eli Lilly and Company, priority 1981, dated 1982).
Counter-ions that a name gives are not always drawn.

Tested on: mouse
Assay: mouse hot plate test (analgesic activity)
Assay type: in vivo
Conditions: hot plate 52° C., 15 minutes after administration, latency to jump
Description: In this test, a mouse is placed inside an upright acrylic cylinder comprising, as its base, a hot plate surface which is maintained at 52° C. The mouse is given, orally or by subcutaneous injection, a predetermined amount of test compound dissolved or suspended in a suitable carrier, and, 15 minutes after administration of the test compound, the mouse is placed on the hot plate surface. The latency in seconds until the mouse jumps from the hot plate surface is measure. […] This must occur in a dose range which produces no motor incoordination or incapacitation. The following Table records the ED50 results obtained from this test.

SMILES | Analgesic Activity, Hot Plate Test ED50, mg./kg. subcutaneous
C=CCN(C(=O)CNC(=O)[C@@H](C)NC(=O)[C@@H](N)Cc1ccc(O)cc1)[C@@H](Cc1ccccc1)C(N)=O [Example 1, L-Tyrosyl-D-alanyl-glycyl-L-(N^α -allyl)phenylalanine Amide, Acetate Salt] | 0.01 mg/kg
C[C@@H](NC(=O)[C@@H](N)Cc1ccc(O)cc1)C(=O)NCC(=O)N(CC1CC1)[C@@H](Cc1ccccc1)C(N)=O [Example 2, L-Tyrosyl-D-alanyl-glycyl-L-(N^α -cyclopropylmethyl)phenylalanine Amide, Acetate Salt] | 0.012 mg/kg
